Test system: spinal disc
Experiment: Disc injections containing only one constituent
Assay type: in vivo
Conditions: injections with only one of glucosamine and chondroitin sulfate
Description: Common to all formulations according to this invention is the inclusion, in an injectable tolerated by the spinal disc, of both glucosamine and chondroitin sulfate (in a buffered injectable solution).

| Molecule | value of the injection |
| --- | --- |
| N[C@H]1C(O)O[C@H](CO)[C@@H](O)[C@@H]1O (some centres unmarked) [glucosamine] | without value |
| chondroitin sulfate | without value |
